≈ marks a conversion by molar mass, not a printed value.

Data set [1] is described as follows: Metabolic stability in liver microsomes (human). The format is in vitro ADME. Particulars: for Residual Amount (%) 15 min / Residual Amount (%) 30 min / Residual Amount (%) 45 min / Residual Amount (%) 60 min: Human, first line of pair. The procedure:
(§1) For negative samples, add 80µL of PBS (100mM, pH = 7.4) solution. Vortex at 800 rpm for 10 seconds, then pre-incubate in a 37°C water bath for 10 minutes. • 4) After pre-incubation, add 2 µL of control drug or test compound to each well to initiate the reaction. The reaction is carried out in a 37°C water bath at 60 rpm. • 5) At 0.5, 15, 30, 45, and 60 minutes, take 50 µL of the reaction system from each well and add it to 200 µL of cold methanol solution containing the internal standard to terminate the reaction. • 6) Mix thoroughly and centrifuge at 4000 rpm at 4°C for 30 minutes. • 7) Take 100µL of supernatant and mix with 100µL ultrapure water for liquid-mass analysis. *Internal standards: 50nM alprazolam, 50nM labetalol and 100nM ketoprofen
(§2) The internal standard method is adopted, and the ratio of the sample peak area to the internal standard peak area is used to calculate the residual percentage (taking the ratio of the sample peak area to the internal standard peak area at 0.5 minutes as 100%).

Data set [2] is described as follows: Metabolic stability in liver microsomes (mouse). The format is in vitro ADME. Particulars: for Residual Amount (%) 15 min / Residual Amount (%) 30 min / Residual Amount (%) 45 min / Residual Amount (%) 60 min: Mouse, first line of pair. As to the method: as §1, §2
Data set [3] in a line: Permeability and transporter substrate test in Caco-2 cells (ABBA). Particulars: human, pH 7.4; for Papp A→B at 2 h, 5 µM: Caco-2, A to B, read-out: Average Papp PappA-B; for Papp B→A at 2 h, 5 µM: Caco-2, B to A, read-out: Average Papp PappB-A; for efflux ratio at 2 h, 5 µM: Caco-2, Papp(B-A)/Papp(A-B), read-out: Efflux Rate (ERa). Type of data set: in vitro ADME. As to the method: (§3) Apparent permeability coefficient (Papp, cm/s) and efflux ratio were calculated using Microsoft Excel.

In a further data set the test system is Caco-2 cells. The description is as above. Type of data set: in vitro ADME. Particulars: Caco-2. As to the method:
as §3

The subject of data set [4] is pancreatic cancer cell line (PSN1). Kind of data set: Proliferation inhibitory activity on cell line PSN1 (CellTiter-Glo, 72 hours). Particulars: for IC50: Homo sapiens, PSN1 cell proliferation; for Max Inhibition Percentage: PSN1 cells. The format is cell-based. The procedure: • a) Adherent cells need to be digested and centrifuged, while suspension cells can be directly centrifuged; • b) Resuspend with complete culture medium and count using an automatic cell counter; • c) Plate 6,000 cells per well for PSN1, and dilute the cell suspension to the required density; • d) Add 100 µL of cells per well, and culture overnight at 37°C in a 5% CO2 incubator to stabilize and balance the cells.
• a) Prepare the compound with DMSO as a solution of 200-fold final concentration; • b) Dilute the 200-fold compound to a 3-fold final concentration with complete culture medium; • c) Add 50 µL of the compound per well, use wells with the same volume of culture medium as controls, and continue culturing in a 37°C, 5% CO2 incubator for 72 hours.
• a) Equilibrate the cell plate and CTG reagent to room temperature; • b) Add 30 µL of CellTiter-Glo® reagent per well; • c) Incubate at room temperature for 15 minutes; • d) Detect with a microplate reader.
• 1) Calculate IC50 using GraphPad Prism 8; • 2) %Inh = (1-(Raw data - Meanmin) / (Meanmax - Meanmin))×100; • 3) Meanmax is the positive control well with only cells and the same volume of culture medium; • 4) Meanmin is the negative control well with only culture medium; • 5) Raw data refers to the signal values of wells with added compounds. For two replicate wells, they are denoted as Raw1 and Raw2.

Data set [5] can be described thus: Thermodynamic solubility test. The format is physicochemical. Conditions: phosphate buffer, aqueous buffer, thermodynamic from solid, pH 7.4, 25°C. The procedure: Weigh 7.098 g Na2HPO4 (Solution A) and dissolve in 500 mL ultrapure water via sonication; weigh 3.40 g KH2PO4 (Solution B) and dissolve in 250 mL ultrapure water via sonication. Slowly add Solution B dropwise to Solution A and adjust the pH to 7.40 ± 0.05.
Shake at 1100 rpm, 25°C for 5 minutes; • i) Add 10 µL of the 1 mg/mL DMSO sample and 10 µL of buffer to 980 µL of methanol, then dilute 10-fold with methanol:water (1:1) as the standard sample for LC-MS/MS analysis.
Solubility was calculated using Excel. Solubility(μM) = (Areafiltered × DFfiltered)/(Areastd × DFstd) × [std] × DFstd [formula]

The next data set can be described thus: in vivo. Conditions: mouse, in vivo, iv, 2 mg/kg.
The nature of data set [6]: Pharmacokinetic study in mice (IV and PO, plasma LC-MS/MS). Particulars: PO 5 mg/kg vs IV 2 mg/kg.
Procedure: (§4) The objective of this study is to investigate the pharmacokinetic properties of the disclosed compounds after tail vein intravenous injection (IV) and oral administration (PO) in female CD1 mice. Plasma was sampleed at 0, 0.083, 0.25, 0.5, 1, 2, 4, 7 and 24 hours post-dosing, and the drug concentrations in plasma at different time points were detected by LC-MS/MS, and the relevant pharmacokinetic parameters were calculated using WinNonlin software.
(§5) Experimental female CD1 mice were purchased from SPF Laboratory Animal Technology Co., Ltd., aged 6-8 weeks with body weights of 20-30 g. The female CD1 mice were housed in a controlled environment (set temperature at 20-25°C and relative humidity at 40-70%). A 12-hour light/12-hour dark cycle was maintained unless interrupted by study-related events.
(§6) Compound solutions are prepared in an ultra-clean workbench and prepared immediately before use, and mixed thoroughly prior to use to ensure formulation homogeneity.
(§7) Vehicle composition: 10% DMSO+90% (20%SBE-β-CD) Table 4. Doses Used in IV Administration
(§8) Vehicle composition: 10% DMSO + 90% (20%SBE-β-CD) Table 5. Doses Used in PO Administration
(§9) Vehicle composition: 0.5% MC + 1% Tween-20 Table 6. Doses Used in PO Administration
(§10) Prior to the experiment, the animals were randomly grouped. The mice were fasted for 12 hours before drug administration, and free feeding was resumed 4 hours after administration.
(§11) All blood samples were transferred into plastic microcentrifuge tubes containing anticoagulant (EDTA-K2), and then centrifuged at 4000 g for 5 minutes at 4°C. The supernatant was transferred into a microcentrifuge tube without anticoagulant, and the plasma was stored in a -75±15°C refrigerator until detection.
(§12) The blood samples were purified by HPLC and analyzed by mass spectrometry to obtain the plasma concentration-time curve of the disclosed compound.
(§13) The pharmacokinetic parameters were estimated by non-compartmental model method (calculated by Phoenix WinNonlin software).

Procedure for in vivo: as §4, §5, §6, §7, §8, §9, §10, §11, §12, §13

In the case of `O=C(O)Cc1ccccc1Nc1c(Cl)cccc1Cl` [Diclofenac, reference compound], in data set [1], the “Residual Amount (%) 15 min” value was 10.78%, the “Residual Amount (%) 30 min” value is reported as 5.62%, the “Residual Amount (%) 45 min” value is 3.65% and the “Residual Amount (%) 60 min” value is on record as 2.93%. In addition, in data set [1] (pH 7.4, Human liver microsomes), the microsomal CLint at 2 µM came out at 194 µL/min/mg. Further, in data set [2], the “Residual Amount (%) 15 min” value stood at 61.24%, the “Residual Amount (%) 30 min” value is 56.66%, the “Residual Amount (%) 45 min” value turned out to be 51.87% and the “Residual Amount (%) 60 min” value is on record as 45.26%. This compound gave a microsomal CLint in data set [2] (male, CD-1, pH 7.4, Mouse liver microsomes) of 67.6 µL/min/mg.
In the case of `CC(C)NCC(O)COc1cccc2ccccc12` (centres unmarked) [Propranolol], in data set [3], the Papp A→B at 2 h, 5 µM came out at 223 nm/s; the Papp B→A at 2 h, 5 µM was determined as 147 nm/s; the efflux ratio at 2 h, 5 µM came to 0.66. In addition, in the data set with Caco-2 cells, the “Classification Efflux Transporter Substrate” value is recorded as “Unlikely or Not (ERa<2)”.
On to `COc1cc2nc(N3CCN(C(=O)c4ccco4)CC3)nc(N)c2cc1OC` [Prazosin], for which, in data set [3], the Papp A→B at 2 h, 5 µM was found to be 89.7 nm/s and the Papp B→A at 2 h, 5 µM was 296 nm/s.
`NC(=O)c1nn(CCO)c2c1CCc1cnc(Nc3cc(N4CCN5CCC[C@@H]5C4)ccc3OC(F)(F)F)nc1-2` [CPD02]: the midpoint of inhibition in data set [4], the IC50, lay at 0.0676 µM. Moreover, the “Max Inhibition Percentage” value in data set [4] (first column of this head) is 80.8. In addition, in data set [4] (second column of this head), the “Max Inhibition Percentage” value is reported as 6.7. In data set [1] (Human liver microsomes), the half-life was found to be 21.4 min and the microsomal CLint stood at 64.8 µL/min/mg. In data set [1], the “Residual Amount (%) 15 min” value is reported as 54.16%, the “Residual Amount (%) 30 min” value stood at 32.53%, the “Residual Amount (%) 45 min” value came to 22.97% and the “Residual Amount (%) 60 min” value came out at 13.71%. In data set [2] (Mouse liver microsomes), this compound gave a half-life of 31.5 min and a microsomal CLint of 44 µL/min/mg. In addition, in data set [2], the “Residual Amount (%) 15 min” value is 56.76%, the “Residual Amount (%) 30 min” value is 39.33%, the “Residual Amount (%) 45 min” value is 30.29% and the “Residual Amount (%) 60 min” value is reported as 26.56%. In data set [3], the Papp A→B at 2 h, 5 µM stood at 78.3 nm/s; the Papp B→A at 2 h, 5 µM worked out at 238 nm/s; the efflux ratio at 2 h, 5 µM stood at 3.04. In addition, the “Classification Efflux Transporter Substrate” value in the data set on Caco-2 cells is “Probable (ERa ≧ 2)”. This compound also yielded a solubility at 24 h in data set [5] of 2.1 µg/mL (≈ 3.76 µM). In “in vivo”, the AUC(0-t) turned out to be 0.404 µg·h/mL, the Vd was determined as 3.05 L/kg, the clearance was 4.9 L/h/kg and the half-life is 81.6 min. In data set [6], this compound showed an F of 38.0%.
Turning to `NC(=O)c1nn(CCO)c2c1CCc1cnc(Nc3cc(N4CCN5CCC[C@H]5C4)ccc3OC(F)(F)F)nc1-2` [CPD03], the IC50 in data set [4] is 0.256 µM. For the same compound, in data set [4] (first column of this head), the “Max Inhibition Percentage” value is given as 73.6. In addition, the “Max Inhibition Percentage” value in data set [4] (second column of this head) is listed as -3.1. Also, in “in vivo”, the AUC(0-t) came out at 0.433 µg·h/mL, the Vd stood at 4.29 L/kg, the clearance worked out at 4.75 L/h/kg and the half-life is 226 min. In data set [6], this compound came in with an F of 16.2%.
Turning to `C[C@H]1O[C@@H](O[C@H]2[C@@H](O)C[C@H](O[C@H]3[C@@H](O)C[C@H](O[C@H]4CC[C@@]5(C)[C@H](CC[C@@H]6[C@@H]5C[C@@H](O)[C@]5(C)[C@@H](C7=CC(=O)OC7)CC[C@]65O)C4)O[C@@H]3C)O[C@@H]2C)C[C@H](O)[C@@H]1O` [Digoxin], in data set [3], the Papp A→B at 2 h, 5 µM was 9.4 nm/s; the Papp B→A at 2 h, 5 µM came out at 261 nm/s; the efflux ratio at 2 h, 5 µM was determined as 27.8. For the same compound, the “Classification Efflux Transporter Substrate” value with Caco-2 cells was “Probable (ERa ≧ 2)”.

These data come from patent EP4653443A1, “STEREOISOMER AND DEUTERATED DERIVATIVE OF PYRAZOLOQUINAZOLINE COMPOUND AND USE” (Phil Rivers Technology Co., Ltd, priority 2023, dated 2024).
